We go through 6 compounds from ChEMBL document CHEMBL4431377, “Design, Synthesis, and Characterization of Sulfamide and Sulfamate Nucleotidomimetic Inhibitors of hHint1” (ACS Med Chem Lett, 2016).

For data set [1], the target named is T1, Adenosine 5'-monophosphoramidase HINT1 (Homo sapiens, UniProt P49773). The data set can be described thus: Binding affinity to His-tagged human full length HINT1 expressed in Rosetta2 pLysS cells by isothermal titration calorimetric assay.
Data set [2] in a line: Aqueous solubility of the compound in aqueous buffer at 5 mM. The data set is classed as physicochemical. As to conditions: 5000 µM.
Data set [3] addresses T1, Adenosine 5'-monophosphoramidase HINT1. The data set can be described thus: Inhibition of His-tagged human full length HINT1 expressed in Rosetta2 pLysS cells using TrpAMP as substrate measured for 2 to 30 mins by fluorescence assay.
Data set [4] shares this target. The data set can be described thus: Binding affinity to recombinant human HINT1 by isothermal titration calorimetric assay.
Data set [5] can be described thus: Stability of the compound in PBS buffer assessed as cyclonucleoside formation at 50 to 100 uM by HPLC analysis. Type of data set: physicochemical.
Data set [6] is described as follows: Aqueous solubility of the compound in aqueous buffer at 20 mM. Type of data set: physicochemical. Particulars: 20000 µM.

Structures are written as SMILES.

T1 sequence (P49773 whole entry): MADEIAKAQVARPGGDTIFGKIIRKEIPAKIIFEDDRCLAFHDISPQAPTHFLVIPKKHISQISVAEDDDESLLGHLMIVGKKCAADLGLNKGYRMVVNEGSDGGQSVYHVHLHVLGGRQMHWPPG

Compound `CCN(CC)CC.Nc1nc2c(ncn2[C@@H]2O[C@H](CNS(=O)(=O)NC(=O)CCc3c[nH]c4ccccc34)[C@@H](O)[C@H]2O)c(=O)[nH]1` came in with an equilibrium dissociation constant (Kd) in data set [1] of 920 nM. Further, the solubility entry in data set [2] is “Soluble”.
Take `Nc1ncnc2c1ncn2[C@@H]1O[C@H](CNS(=O)(=O)NC(=O)CCCC[C@@H]2SC[C@@H]3NC(=O)N[C@@H]32)[C@@H](O)[C@H]1O`: in data set [3], the half-maximal inhibitory concentration (IC50) turned out to be 1000 nM and the inhibition entry is “Dose-dependent effect”. In data set [1], this compound came in with a Kd of 320 nM.
Take `Nc1nc2c(ncn2[C@@H]2O[C@H](COC(=O)NCCc3c[nH]c4ccccc34)[C@@H](O)[C@H]2O)c(=O)[nH]1`: in data set [3], the 50% inhibitory concentration (IC50) amounted to 25500 nM and the inhibition result is “Dose-dependent effect”. Moreover, in data set [4], the dissociation constant Kd was 3650 nM.
Consider `CCN(CC)CC.O=C(CCc1c[nH]c2ccccc12)NS(=O)(=O)OC[C@H]1O[C@@H](n2cnc3c2ncn2ccnc32)[C@H](O)[C@@H]1O`, for which the Stability entry in data set [5] was “Stable”. Besides, in data set [6], the solubility result is “Soluble”.
On to `CCCC(=O)NS(=O)(=O)OC[C@H]1O[C@@H](n2cnc3c(=O)[nH]c(N)nc32)[C@H](O)[C@@H]1O.CCN(CC)CC`, for which the affinity in data set [1], expressed as Kd, was 2900 nM. Besides, the solubility entry in data set [2] is recorded as “Soluble”.
Taken in the same sequence, the figures for `CCN(CC)CC.Nc1nc2c(ncn2[C@@H]2O[C@H](COS(=O)(=O)NC(=O)CCc3c[nH]c4ccccc34)[C@@H](O)[C@H]2O)c(=O)[nH]1` were 810 nM and “Soluble”.

A word on the Kd: it is a measure of binding affinity in units of concentration. Usually IC50 stands for the concentration that inhibits the measured activity by half.
